The target of series [1] is T1, Heat shock factor protein 1 (Mus musculus, UniProt P38532).
T1 sequence (P38532 whole entry): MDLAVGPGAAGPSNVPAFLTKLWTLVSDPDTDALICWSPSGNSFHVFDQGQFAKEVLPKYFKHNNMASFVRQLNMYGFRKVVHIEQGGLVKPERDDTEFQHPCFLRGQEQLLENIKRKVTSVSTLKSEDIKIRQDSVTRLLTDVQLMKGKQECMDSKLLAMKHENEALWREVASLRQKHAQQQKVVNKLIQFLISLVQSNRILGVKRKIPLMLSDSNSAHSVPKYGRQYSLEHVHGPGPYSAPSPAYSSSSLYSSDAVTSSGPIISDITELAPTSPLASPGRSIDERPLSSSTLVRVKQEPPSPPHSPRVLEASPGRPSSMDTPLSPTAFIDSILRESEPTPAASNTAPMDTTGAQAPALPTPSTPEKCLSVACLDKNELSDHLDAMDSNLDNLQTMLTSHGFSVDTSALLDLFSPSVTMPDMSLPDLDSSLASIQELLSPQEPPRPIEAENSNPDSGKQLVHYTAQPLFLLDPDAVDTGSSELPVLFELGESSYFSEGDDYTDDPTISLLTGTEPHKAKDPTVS
The experiment in a line: enhancement of HSF1-driven luciferase signal – cell-based, NIH3T3, luminescence, dose retest, confirmation (AID 435004).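 Further: stress induced by proteasome inhibitor MG132 added 30 min after compound; luciferase reporter driven by HSF1 response element in NIH3T3 cells; actives raise luminescence as potentiators of the MG132 stress response.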 Format: functional.

The nature of series [2]: NIH-3T3 fibroblast cytotoxicity, dose response, cytotoxicity control, cell-based, fluorescence, Alamar Blue, secondary assay (AID 2327).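 Further: NIH-3T3 mouse fibroblasts cultured with fluconazole at 8 µg/mL.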 It is filed as functional. On the technique in general: The colour change of resazurin is a common sign of viable cells or microbes.
The nature of series [3]: fluconazole-exposed Candida albicans growth modulators – fluorescence, retest, confirmation (AID 2467). It is filed as functional, cell-based.
Series [4] concerns the target T2, Corticotropin-releasing factor receptor 2/Corticotropin-releasing factor-binding protein (Homo sapiens, UniProt P24387+Q13324).
T2 sequence (Q13324 whole entry): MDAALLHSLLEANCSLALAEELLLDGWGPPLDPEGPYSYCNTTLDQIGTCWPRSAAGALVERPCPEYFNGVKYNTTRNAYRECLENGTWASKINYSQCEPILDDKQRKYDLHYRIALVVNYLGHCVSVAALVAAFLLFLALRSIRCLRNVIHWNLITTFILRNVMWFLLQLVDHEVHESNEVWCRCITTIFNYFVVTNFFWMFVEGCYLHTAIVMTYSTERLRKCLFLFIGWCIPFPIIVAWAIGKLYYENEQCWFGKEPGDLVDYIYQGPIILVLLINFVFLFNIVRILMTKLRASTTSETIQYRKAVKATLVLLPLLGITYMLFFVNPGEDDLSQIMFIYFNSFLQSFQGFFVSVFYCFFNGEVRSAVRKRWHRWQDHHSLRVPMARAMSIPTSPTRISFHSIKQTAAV
T2 sequence (P24387 whole entry): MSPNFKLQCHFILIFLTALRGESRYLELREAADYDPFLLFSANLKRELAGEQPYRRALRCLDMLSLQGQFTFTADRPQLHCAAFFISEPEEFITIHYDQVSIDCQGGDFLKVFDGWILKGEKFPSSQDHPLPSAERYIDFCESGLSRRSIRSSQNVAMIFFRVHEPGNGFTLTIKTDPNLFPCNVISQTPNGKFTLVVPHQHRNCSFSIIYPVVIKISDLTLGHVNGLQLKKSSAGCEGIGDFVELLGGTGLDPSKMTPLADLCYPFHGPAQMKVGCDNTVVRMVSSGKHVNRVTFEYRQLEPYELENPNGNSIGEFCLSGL
The series is described as follows: Dose Response confirmation of uHTS hits for small molecule antagonists of the CRF-binding protein and CRF-R2 receptor complex. It is filed as functional. Particulars: read-out: IC50_Mean.

The target in series [5] is T2, Corticotropin-releasing factor receptor 2/Corticotropin-releasing factor-binding protein. The series is described as follows: activators of CRF receptor 2 with binding protein – uHTS hits, confirmation (AID 602473). The settings on record: read-out: EC50_Mean. Format: functional.
Series [6] in a line: Luminescence Cell-Based Dose Confirmation HTS to Identify Activators of 5'UTR Stem-Loop Driven Alpha-Synuclein mRNA Translation in H4 Neuroglioblastoma Cells. [Related pubchem assays: 1829 (Project Summary), 1814 (Primary HTS)]. Format: functional.
A short description of series [7]: Luminescence Cell-Based Dose Response HTS to Identify Activators of Luciferase Translation or Activity in H4 […] Cells. [Related pubchem assays: 1829 (Project Summary), 1814 (Primary HTS)]. Format: functional.
Series [8] has as its system H4. The experiment in a line: Luminescence Cell-Based Dose Response HTS to Identify Activators of 5'UTR Stem-Loop Driven Prion Protein mRNA Translation in H4 Neuroglioblastoma Cells. [Related pubchem assays: 1829 (Project Summary), 1814 (Primary HTS)]. Format: functional. Particulars: Homo sapiens.
Series [9] is described as follows: viability of uninfected HEp-2 cells – cell-based, HTS, cytotoxicity control for RSV inhibitor project, dose response (AID 2410). Format: functional. The settings on record: human respiratory syncytial virus.
A short description of series [10]: Trypanosoma cruzi growth suppression in host cells – NIH3T3 host cells, beta-gal luminescence, confirmation (AID 2044).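 Further: intracellular parasites grown in NIH/3T3 mouse fibroblasts as host cells; luminescent beta-galactosidase reporter signal from transgenic T. cruzi replicating inside host cells; inhibitors lower the luminescence signal.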 Format: functional, cell-based.
Series [11] can be described thus: NIH3T3 cell viability loss – ATP luminescence, mouse fibroblasts, counter-screen, dose response (AID 2010).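 Further: cells exposed to compound for about 90 hours before reading.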 Format: functional, cell-based.
Series [12] in a line: cells. It is filed as functional, cell-based.
A short description of series [13]: cells. Format: functional, cell-based. This is another data set of the same source.
The target of series [14] is Cytochrome P450 2C19 (Homo sapiens, UniProt P33261). The experiment in a line: Cytochrome panel assay with activity outcomes. Panel member name: p450-cyp2c19 Compounds with AC50 equal or less than 10 uM are considered active. Format: functional.
Sequence of Cytochrome P450 2C19 (P33261 whole entry): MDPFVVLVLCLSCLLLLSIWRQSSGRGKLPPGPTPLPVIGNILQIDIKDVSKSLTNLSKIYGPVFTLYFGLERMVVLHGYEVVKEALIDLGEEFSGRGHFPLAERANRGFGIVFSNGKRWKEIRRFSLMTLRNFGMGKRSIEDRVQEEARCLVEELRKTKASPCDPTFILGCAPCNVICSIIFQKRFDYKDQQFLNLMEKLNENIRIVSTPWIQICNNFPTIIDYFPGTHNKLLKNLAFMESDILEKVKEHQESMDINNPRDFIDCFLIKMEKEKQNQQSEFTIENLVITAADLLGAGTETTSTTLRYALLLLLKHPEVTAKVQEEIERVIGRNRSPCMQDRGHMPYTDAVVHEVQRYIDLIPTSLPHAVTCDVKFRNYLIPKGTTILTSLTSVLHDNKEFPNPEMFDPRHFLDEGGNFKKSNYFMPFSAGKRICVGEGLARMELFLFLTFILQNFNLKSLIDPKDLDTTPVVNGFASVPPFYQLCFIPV
Series [15] concerns the target Cytochrome P450 3A4 (Homo sapiens, UniProt P08684).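 Further: CYP3A4 tested as one member of a cytochrome P450 panel screen.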

The structures appear in SMILES notation. The source made the active and inactive calls.

Sequence of Cytochrome P450 3A4 (P08684 whole entry): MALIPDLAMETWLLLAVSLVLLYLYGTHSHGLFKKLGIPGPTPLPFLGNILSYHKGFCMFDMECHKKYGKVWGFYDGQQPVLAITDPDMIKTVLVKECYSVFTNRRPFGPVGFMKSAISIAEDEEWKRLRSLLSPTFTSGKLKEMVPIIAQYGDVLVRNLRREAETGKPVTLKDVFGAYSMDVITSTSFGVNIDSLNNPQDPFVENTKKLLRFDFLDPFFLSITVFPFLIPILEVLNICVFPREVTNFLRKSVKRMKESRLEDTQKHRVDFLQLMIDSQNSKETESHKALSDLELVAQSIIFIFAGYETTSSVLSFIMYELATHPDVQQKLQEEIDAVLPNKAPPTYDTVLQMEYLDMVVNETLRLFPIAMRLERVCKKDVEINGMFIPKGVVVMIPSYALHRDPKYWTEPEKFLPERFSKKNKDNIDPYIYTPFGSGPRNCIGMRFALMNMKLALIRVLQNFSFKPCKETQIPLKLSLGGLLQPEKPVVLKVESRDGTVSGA

For `Cc1cc2nc(CCN(C(S)=NCC3CCCO3)C3CCCC3)[nH]c2cc1C` (stereo unspecified), the EC50 in [1] is > 260 µM (inactive).
On to `Cc1cc(C(=O)Nc2ccccc2C(=O)O)ccc1NC(=O)COc1cccc([N+](=O)[O-])c1`, for which the EC50 in series [2] was 22.8 µM (inconclusive); in [3] it was 3.79 µM (active).
`CCOc1ccccc1CN1CCNC(=O)C1CC(=O)NCc1nccn1CC` (stereo unspecified): in [1], the EC50 was > 260 µM (inactive).
Turning to `Cc1ccc2nc(SCC(=O)N3CCOCC3)[nH]c2c1`, the IC50 in series [4] is > 47.1 µM (inactive). Also, the EC50 in series [5] is > 53 µM (inactive).
For `C=CCn1c(Oc2ccccc2)nc2c1c(=O)n(C)c(=O)n2C`, the EC50 in series [5] is > 53 µM (inactive).
In the case of `Cc1ccc(C(=O)c2c3ccccc3[n+]([O-])n2[C@@H](C)C(N)=O)cc1`, the EC50 was 6.39 µM (active) in [6], 11.2 µM (active) in series [7] and 38 µM (active) in series [8].
Turning to `Clc1ccc(-c2[nH]nc3c2CCCC3)cc1`, in series [9], the CC50 (in general, the concentration that lowers cell viability or growth by half) was 37.1 µM (active). Also, the EC50 in [6] is 10.4 µM (active); in series [7] it was 16.2 µM (active); in [8], 54.4 µM (active).
As for `CC(C)(C)NC(=O)NC(=O)CN1CC=C(c2ccccc2)CC1`, in series [1], the EC50 was > 260 µM (inactive).
For the molecule `[O-][n+]1c2ccccc2c2n1CCCN=C2c1ccc(Cl)cc1`, the EC50 is 7.98 µM (active) in [6], 8.34 µM (active) in series [7] and 41.8 µM (active) in series [8].
As for `COc1cc2nc(SCc3ccc(Cl)cc3Cl)n(Cc3cccs3)c(=N)c2cc1OC`, the EC50 was > 160 µM (inactive) in series [2], > 38 µM (not active) in [3], 2.09 µM (active) in series [10] and > 60 µM (inconclusive) in [11].
Turning to `CC(C)n1c(N2CCN(C(=O)Nc3ccc(Cl)cc3)CC2)nc2ccccc21`, the EC50 was 140 µM (active) in [2] and > 38 µM (not active) in series [3].
Regarding `O=C(NCCCN1CCCCC1)c1ccc2c(=O)n(CCc3ccccc3)c(=O)[nH]c2c1`, the results for the EC50 in series [6], in series [7] and in series [8] were > 120 µM (not active), 12.2 µM (active) and 93.9 µM (active), respectively.
For `CN(CC(=O)NCc1ccc(F)cc1)S(=O)(=O)c1ccc(Br)s1`, the IC50 in series [4] was > 47.1 µM (inactive). Also, the EC50 in series [5] is > 53 µM (inactive).
Turning to `Cc1ccc(NC(=O)c2cc(=O)c3ccccc3o2)cc1`, the EC50 in [6] was 1.12 µM (active); in series [7] it was 17.9 µM (active); in series [8] it was 21.6 µM (active).
As to `COc1ccccc1-n1c(C)cc(SC)c(C(C)=O)c1=S`, the EC50 in [2] is > 150 µM (inactive); in [3], 14 µM (active).
For the molecule `CC(=O)Nc1cc(C(N)=O)c(Cl)cc1Cl`, the IC50 in series [4] was > 47.1 µM (inactive). Besides, the EC50 in [5] was > 53 µM (inactive).
As for `Cc1nnc(Sc2nc3c(c(=O)n(C)c(=O)n3C)n2Cc2ccccc2Cl)s1`, in series [1], the EC50 was > 260 µM (inactive).
In the case of `O=C(OCC(=O)c1cccs1)C1=COCCO1`, the EC50 in [6] was 15.4 µM (active); in [7], 9.36 µM (active); in series [8], 8.15 µM (active).
`CCOc1ccccc1N(CC(=O)N1CCC(C(N)=O)CC1)S(=O)(=O)c1ccc(SC)cc1`: the IC50 in series [4] was > 47.1 µM (inactive). The EC50 in series [5] is > 53 µM (inactive).
As to `CC(=O)Nc1ccc(S(=O)(=O)N2CCC(NC(C)=O)(c3cccc(F)c3)CC2)cc1`, the IC50 in series [4] is > 47.1 µM (inactive). In addition, the EC50 in series [5] was > 53 µM (inactive).
For `CCNS(=O)(=O)c1ccc(NC(=O)c2cncc(Br)c2)cc1`, the EC50 in series [12] and in series [13] was > 350 µM (not active) in each case.
`O=C(NCCO)c1c(O)c2cccc3c2n(c1=O)CC3`: in series [4], the IC50 was > 47.1 µM (inactive). Further, in [5], the EC50 was > 53 µM (inactive).
Take `CCC(=O)c1ccc(N2CCN(C(=O)c3ccc(Br)cc3)CC2)c(F)c1`: the EC50 in [12] and in series [13] was > 350 µM (not active) in each case.
Turning to `CCN=C(S)N1CCN(S(=O)(=O)c2cccc(C(F)(F)F)c2)CC1`, in series [1], the EC50 was > 260 µM (inactive).
Consider `Cc1nn(C)c(=O)n1-c1ccc(OCc2ccccc2)cc1`, for which the results for the EC50 in series [6], in series [7] and in series [8] were 8.8 µM (active), 49.9 µM (active) and 12.9 µM (active), respectively.
Consider `CC(=O)N1CCN(c2ccc(NC(=O)c3ccc(C(C)(C)C)cc3)cc2)CC1`, for which the results for the EC50 in [2] and in [3] were > 160 µM (inactive) and 7.14 µM (active), respectively.
For the molecule `COc1ccc(CCC(=O)NCCS(=O)(=O)N2CCN(c3ccccc3OC)CC2)cc1`, the EC50 in series [6], in series [7] and in series [8] was > 120 µM (not active) in each case.
For `CCc1cc(=O)oc2c(CNCc3ccccc3F)c(O)c(Cl)cc12`, the EC50 in [1] was > 260 µM (inactive).
Take `Cc1nc2ncnn2c(C)c1CCC(=O)NCc1ccco1`: in [1], the EC50 is > 260 µM (inactive). Also, the concentration at half-maximal activity (AC50) (commonly the concentration at which the activity in the assay is half-maximal) is “inconclusive” in [14] and 10 µM (inconclusive) in series [15].
For the molecule `Cc1ccc(NC(=O)/C(C#N)=C/c2cn(CC(=O)NCc3ccco3)c3ccccc23)cc1C`, the IC50 in series [4] was > 47.1 µM (inactive). The EC50 in series [5] was > 53 µM (inactive).
In the case of `COc1ccc(/C=N/NC(=O)c2cccnc2)c(C(=O)O)c1OC`, in series [1], the EC50 is > 260 µM (inactive).
As for `O=C(CCCC1=NS(=O)(=O)c2ccccc2N1)N1CCN(c2ccccc2)CC1`, the EC50 in series [1] is > 260 µM (inactive).
With `CCc1cc(C=C(Cl)Cl)oc(=O)c1C`, the EC50 in [6] was 6.98 µM (active); in series [7] it was 8.12 µM (active); in [8] it was > 120 µM (not active).
As to `CCOC(=O)C1(Cc2ccc(OC)cc2)CCN(C(=O)c2cc3ccccc3[nH]2)CC1`, the EC50 in [1] is 30.3 µM (active).
For the molecule `COC(=O)Nc1nnc(Cc2ccc(OC)cc2)s1`, the EC50 in series [12] and in series [13] was > 350 µM (not active) throughout.
Turning to `O=[N+]([O-])c1ccc(OCCCCN2CCCCC2)cc1`, the EC50 in series [12] and in [13] was > 350 µM (not active) in each case.
Regarding `CCOc1ccc(C(=O)Nc2ccc3c(c2)OCCO3)cc1`, in series [1], the EC50 was > 260 µM (inconclusive).
`CN(Cc1cccc(C(F)(F)F)c1)C(=O)C1CCC(=O)N(CC2CCCCC2)C1` (stereo unspecified): the EC50 in series [12] and in series [13] was > 350 µM (not active) in each case.
As to `CCn1c(SCC(=O)N/N=C/C=C/c2ccco2)nc2ccccc21`, the EC50 in series [1] was > 260 µM (inactive).
On to `CCCCOC(=O)c1ccc(NC(=S)NC(=O)c2c(Br)c(C)nn2C)cc1`, for which the EC50 in [12] was > 350 µM (not active); in series [13], 44.9 µM (active).

Values taken from ChEMBL document CHEMBL1201862, “PubChem BioAssay data set” (2004).
